# Experiments:
# [1] = target: human β-2 adrenergic receptor (Homo sapiens, UniProt P07550); test: Competitive radioligand binding assay, β2-adrenergic; conditions: test article 1×10^−6 and 1×10^−5 mol/L; human recombinant
# CRL NMRI mice = test: Mouse 6-Hz model of refractory seizures; type: in vivo; conditions: 5.0 or 20.0 mg/kg i.p.
# Experimental: The 6 Hz mouse model is a model system used to assess the efficacy of putative anti-seizure medications for refractory epilepsies generally, without regard to type.
# The efficacy of FA in the mouse 6-Hz model was assessed by behavioral characterization after intraperitoneal injection of CRL NMRI mice (30-35 g) with VHC (50/50 DMSO/PEG200) or FA (5.0 or 20.0 mg/kg). Animals were placed in one of three treatment groups: vehicle (n=10), FA 5 mg/kg (n=6) and FA 20 mg/kg (n=6). Seizures were transcorneal-induced 1 h after injection (6-Hz, 0.2 ms pulse width, 44 mA).
# Na channel = system: T1, Na channel; test: Competitive radioligand binding assay, Na channel; set-up: species or system Rat; conditions: test article 1×10^−6 and 1×10^−5 mol/L; rat brain
# T1 construct: other: test article 1×10^−6 and 1×10^−5 mol/L; rat brain
# DBA/1 mice = test: Seizure-induced respiratory arrest (S-IRA) in DBA/1 mice; type: in vivo, mouse
# Chain of human β-2 adrenergic receptor (P07550 whole entry): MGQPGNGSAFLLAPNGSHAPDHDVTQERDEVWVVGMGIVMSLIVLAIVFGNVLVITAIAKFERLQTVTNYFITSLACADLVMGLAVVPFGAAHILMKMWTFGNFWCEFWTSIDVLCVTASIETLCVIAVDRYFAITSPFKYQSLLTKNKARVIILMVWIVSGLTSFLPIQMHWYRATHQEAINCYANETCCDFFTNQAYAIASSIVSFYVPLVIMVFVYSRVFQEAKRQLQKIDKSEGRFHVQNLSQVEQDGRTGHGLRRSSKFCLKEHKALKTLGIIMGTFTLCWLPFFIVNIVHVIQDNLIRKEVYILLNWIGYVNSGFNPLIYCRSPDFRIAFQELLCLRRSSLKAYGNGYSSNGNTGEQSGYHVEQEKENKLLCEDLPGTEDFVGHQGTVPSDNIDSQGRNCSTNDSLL
compound,measurement,setting,value
"CCNC(C)Cc1cccc(C(F)(F)F)c1 (racemic) [fenfluramine, (RS)—N-ethyl-1-[3-(trifluoromethyl)phenyl]propan-2-amine]",inhibition of receptor binding (tracer),[1],significantly inhibit
same,period of post-seizure aggression,CRL NMRI mice,did not
same,seizures in the mouse 6-Hz model,"CRL NMRI mice; 1 h before 6-Hz 44 mA stimulation, p<0.05 vs. VHC",significantly reduced seizures
same,inhibition of receptor binding (tracer),Na channel,significantly inhibit
same,effect on seizures and S-IRA,DBA/1 mice; 5 mg/kg,ineffective
same,S-IRA,"DBA/1 mice; 15 mg/kg, at 16h, p<0.001",selective S-IRA blocking effect
same,time at which S-IRA susceptibility returned,DBA/1 mice; 40 mg/kg,72 h
same,S-IRA incidence and seizure severity,"DBA/1 mice; 10-20 mg/kg, at 8h",reduction in S-IRA incidence and seizure severity
same,S-IRA susceptibility and seizure severity,"DBA/1 mice; 10 and 15 mg/kg, at 12h",significantly (p<0.01) reduced S-IRA susceptibility and seizure severity
same,ED50,"DBA/1 mice; Mus musculus, ip, 0.5 h, read-out: ED50, blockade of seizure-induced respiratory arrest (S-IRA)",18.6 mg/kg
same,time by which susceptibility to seizure and S-IRA returned,"DBA/1 mice; time course study, 5-20 mg/kg",≤ 48 h

# Reference: patent US20220370381A1 (priority 2016, published 2022)
